Read-outs that look alike come from different tables or passages of the source.
Columns and labels:
[1] = Rat in vivo study: plasma pharmacokinetics of MRE-269 after oral capsule dosing; parameters: species or system Sprague-Dawley rat
Protocol: Qualicaps, Nara, Japan) and given orally to male Sprague-Dawley rat (Japan SLC, Sizuoka, Japan) at a dose level of 1 mg/capsule/body. […] • The concentration of MRE-269 in plasma sample was determined by high performance liquid chromatography (HPLC) tandem mass spectrometry (LC-MS/MS). […] For LC-MS/MS, a Nexera HPLC system (Shimadzu, Kyoto, Japan) equipped with an InertSustain C18 column (2-μm particle size; 2.1 mm i.d.×50 mm; GL Science) connected to a TQ4500 or TQ5500 tandem mass spectrometer (Sciex, Framingham, Mass.) was used. The HPLC mobile phase was 0.1% formic acid (solvent A) and acetonitrile (solvent B). A gradient was run at 85% solvent B in 2.5 min at a flow rate of 0.4 mL/min and 40° C. Each analyte detected was quantified in positive ion multiple reaction monitoring mode by applying the following precursor-to-product transitions: […] • The pharmacokinetic parameters were calculated with Phoenix WinNonlin version 8.1.0 (Certara Princeton, NJ). Relative bioavailability (BA) to MRE-269 was calculated according to the following equation. Relative BA (%)=(AUC0-24(each salt)/(AUC0-24(MRE-269, mean)×100

[2] = Thermodynamic stability of the free-form crystal; type: physicochemical; details: free form produced according to Example 42 of PTL 1
Source text: A method for producing Compound B is disclosed in Example 42 of PTL 1. […] Thus, the present invention was completed.

[3] = MRE-269 in plasma, male Sprague-Dawley rat, oral, HPMC capsule, 1 mg/capsule/body

With `CC(C)N(CCCCOCC(=O)O)c1cnc(-c2ccccc2)c(-c2ccccc2)n1.NC(CO)(CO)CO` [Tromethamine salt, Tromethamine salt of 2-[4-[(5,6-diphenylpyrazin-2-yl)-propan-2-ylamino]butoxy]acetic acid] the AUC0-last [1, 3] was 7170 ± 2320 ng·h/mL, the “AUC0-∞” value [1, 3] was 6520 ± 1890 ng·h/mL and the Cmax [1, 3] was 949 ± 555 ng/mL. For the same compound, the t1/2 [1, 3] was 3.48 ± 0.43 h, the tmax [1, 3] was 4.00 ± 3.94 h and the “relative BA” value ([1]; relative to MRE-269: AUC0-24(each salt)/AUC0-24(MRE-269, mean)×100, rat, oral, 1 mg/capsule/body) was 128 ± 41%.

Work on `CC(C)N(CCCCOCC(=O)[O-])c1cnc(-c2ccccc2)c(-c2ccccc2)n1.[K+]` [Potassium salt, Potassium salt of 2-[4-[(5,6-diphenylpyrazin-2-yl)-propan-2-ylamino]butoxy]acetic acid] yielded a t1/2 ([1]; rat, in vivo, po) of 8.96 ± 8.00 h and a tmax ([1]; rat, in vivo, po) of 3.25 ± 3.20 h.

Compound `CC(C)N(CCCCOCC(=O)O)c1cnc(-c2ccccc2)c(-c2ccccc2)n1` [MRE-269, 2-(4-((5,6-diphenylpyrazin-2-yl)(isopropyl)amino)butoxy)acetic acid, reference compound] has an AUC(0-t) [1, 3] of 5620 ± 1920 ng·h/mL, a Cmax ([1]; MRE-269 in plasma, male Sprague-Dawley rat, oral, HPMC capsule, 1 mg/capsule/body, read-out: Cmax) of 475 ± 142 ng/mL and a tmax ([1]; MRE-269 in plasma, male Sprague-Dawley rat, oral, HPMC capsule, 1 mg/capsule/body, read-out: tmax) of 6.5 ± 3 h.

For `CC(C)N(CCCCOCC(=O)O)c1cnc(-c2ccccc2)c(-c2ccccc2)n1` [form-III crystal, 2-(4-((5,6-diphenylpyrazin-2-yl)(isopropyl)amino)butoxy)acetic acid], the thermodynamic stability [2] was “thermodynamically unstable”.

Work on `CC(C)N(CCCCOCC(=O)[O-])c1cnc(-c2ccccc2)c(-c2ccccc2)n1.CC(C)N(CCCCOCC(=O)[O-])c1cnc(-c2ccccc2)c(-c2ccccc2)n1.[Ca+2]` [Calcium salt (Pattern 1), Calcium salt of 2[4-[(5,6-diphenylpyrazin-2-yl)-propan-2-ylamino]butoxy]acetic acid] yielded a tmax ([1]; rat, in vivo, po) of 7.50 ± 3.79 h.

For `CC(C)N(CCCCOCC(=O)O)c1cnc(-c2ccccc2)c(-c2ccccc2)n1.O=S(=O)(O)CCS(=O)(=O)O` [1,2-Ethanedisulfonate salt (Pattern A), 1,2-Ethanedisulfonate salt of 2-[4-[(5,6-diphenylpyrazin-2-yl)-propan-2-ylamino]butoxy]acetic acid], the t1/2 ([1]; rat, in vivo, po) was 3.99 ± 2.01 h and the tmax ([1]; rat, in vivo, po) was 3.10 ± 2.30 h.

Compound `CC(C)N(CCCCOCC(=O)[O-])c1cnc(-c2ccccc2)c(-c2ccccc2)n1.[Na+]` [Sodium salt, Sodium salt of 2-[4-[(5,6-diphenylpyrazin-2-yl)-propan-2-ylamino]butoxy]acetic acid] has a tmax ([1]; rat, in vivo, po) of 7.50 ± 1.91 h.
